Experimental data published in patent US10710988B2, “Piperazine derivative” (Astellas Pharma Inc., priority 2016, dated 2020).

These compounds were tested against T1, human MC1 receptor (Homo sapiens, UniProt Q01726) (assay: Human MC1 receptor activation, cAMP production in cells transiently expressing the receptor). Details: FreeStyle 293-F cells expressing human MC1 receptor, α-MSH maximum = 100%.
T1 construct: expressed in transfected cells; host or cells: FreeStyle 293-F cells (transient, electroporation)
Assay type: cell-based
From the text: (1) Construction of Human MC Receptor-Expressing Vector
A human MC4 receptor gene (GenBank Accession No.: NM_005912.2), a human MC1 receptor gene (GenBank Accession No.: NM_002386.3), or a human MC3 receptor gene (GenBank Accession No.: NM_019888.3) was introduced into an expression vector pcDNA™ 3.1N/V5-His TOPO (registered trademark) (Thermo Fisher Scientific Inc).
(2) Construction of Cells Transiently Expressing Human MC Receptor
An expression vector for a human MC4, MC1, or MC3 receptor was introduced into FreeStyle™ 293-F cells (Thermo Fisher Scientific Inc., product number: R790-07). For the introduction, electroporation was employed. That is, 1×10^7 FreeStyle™ 293-F cells were suspended in 80 μL of an Electroporation Buffer (Thermo Fisher Scientific Inc., product number: B201-100), and 20 μg of the expression vector was added thereto. The resultant was put into a cuvette (OC-100 Processing Assembly, MaxCyte, Inc.) and electroporated with MaxCyte STX (registered trademark) (MaxCyte, Inc.). The cells were cultured for a day, suspended in a Cell Banker (registered trademark) 1 (TAKARA BIO INC. or JUJI FIELD Inc., product number: BLC-1), and stored frozen until they were used.
(3) Measurement of Amount of cAMP Production
Measurement was carried out by using a LANCE (registered trademark) Ultra cAMP Kit (PerkinElmer, Inc.) in accordance with the attached instructions. That is, after dissolution in DMSO, the test compound (a final concentration of 1 pM to 30 μM) diluted with an assay buffer (Hank's balanced salt solution, 5 mM 4-(2-hydroxyethyl)-1-piperazineethanesulfonic acid (HEPES), 0.5 mM 3-isobutyl-1-methylxanthine (IBMX), 0.1% bovine serum albumin, pH 7.4), or α-MSH (Bachem Inc., a final concentration of 1 pM to 30 μM) was added to OptiPlate-384 (PerkinElmer, Inc.). Furthermore, the suspension of the cells transiently expressing the human MC4, MC1, or MC3 receptor prepared using the assay buffer was added thereto at 1,000 cells/well, and then left to stand at room temperature for about 1 hour. Thereafter, an Eu-cAMP tracer solution and an ULight™-anti-cAMP solution were added thereto, and then the resulting solution was left to stand at room temperature for about 1 hour. The amount of cAMP was calculated using EnVision (registered trademark) (PerkinElmer Inc.).
For the agonistic activity, the efficacy (EC50 (μM)) was calculated by a non-linear regression method with a Sigmoid-Emax model, by defining the maximum reaction using α-MSH as 100% and the reaction using the vehicle alone as 0%, respectively.

T1 sequence (Q01726 whole entry): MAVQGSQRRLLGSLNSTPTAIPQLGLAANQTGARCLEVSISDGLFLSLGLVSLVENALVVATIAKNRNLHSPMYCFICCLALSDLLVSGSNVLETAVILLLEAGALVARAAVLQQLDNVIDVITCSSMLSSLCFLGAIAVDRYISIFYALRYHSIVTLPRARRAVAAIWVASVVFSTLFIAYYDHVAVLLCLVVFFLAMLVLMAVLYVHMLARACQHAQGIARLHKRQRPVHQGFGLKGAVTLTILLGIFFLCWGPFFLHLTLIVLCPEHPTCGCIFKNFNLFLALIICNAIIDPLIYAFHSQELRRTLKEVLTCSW

Compared with CC(=O)N[C@@H](CC(C)(C)C)C(=O)N1C[C@H](C)N(C(=O)[C@@H]2CN(C(C)(C)C)C[C@H]2c2ccc(F)cc2F)C[C@H]1C.Cl [Example 4, N-{(2S)-1-[(2R,5S)-4-{[(3 S,4R)-1-tert-butyl-4-(2,4-difluorophenyl)pyrrolidin-3-yl]carbonyl}-2,5-dimethylpiperazin-1-yl]-4,4-dimethyl-1-oxopentan-2-yl}acetamide monohydrochloride], CC(=O)N[C@@H](CC(C)(C)C)C(=O)N1CCN(C(=O)[C@@H]2CN(C(C)(C)C)C[C@H]2c2ccc(F)cc2F)[C@@H](C)C1.Cl [Example 8] is 1.7-fold higher in EC50: 1000 nM for the first, 1700 nM for the second.

Compared with CC(=O)N[C@@H](CC(C)C)C(=O)N1CCN(C(=O)[C@@H]2CN(C(C)(C)C)C[C@H]2c2ccc(Cl)cc2F)C[C@H]1C [Example 5], CC(=O)N[C@H](C(=O)N1CCN(C(=O)[C@@H]2CN(C(C)(C)C)C[C@H]2c2ccc(F)cc2F)[C@@H](C)C1)C1CCCCC1.Cl [Example 6, N-{(1S)-2-[(3S)-4-{[(3S,4R)-1-tert-butyl-4-(2,4-difluorophenyl)pyrrolidin-3-yl]carbonyl}-3-methylpiperazin-1-yl]-1-cyclohexyl-2-oxoethyl}acetamide monohydrochloride] is 3.7-fold higher in EC50: 710 nM for the first, 2600 nM for the second.

Work on CC(=O)N[C@@H](CC(C)(C)C)C(=O)N1C[C@H](C)N(C(=O)C2CN(C(C)(C)C)CC2c2ccc(F)cc2)C[C@H]1C.Cl (some centres unmarked) [Example 11] yielded an EC50 of 1600 nM.
